The source made the active and inactive calls. How the calls were made is not given here.
Tested on: CCRIS mutagenicity, Ames/micronucleus/aberration tests
Assay: CCRIS mutagenicity studies
Conditions: Test System: AMES SALMONELLA TYPHIMURIUM

Row | SMILES | mutagenic call (Strain/Indicator: TA98, Metabolic Activation: NONE, Method: SUSPENSION/PLATE) | mutagenic call (Strain/Indicator: TA98, Metabolic Activation: RAT, LIVER, S-9, PHENOBARBITAL AND 5,6-BENZOFLAVONE, Method: SUSPENSION/PLATE) | mutagenic call (Strain/Indicator: TA100, Metabolic Activation: NONE, Method: SUSPENSION/PLATE) | mutagenic call (Strain/Indicator: TA100, Metabolic Activation: RAT, LIVER, S-9, PHENOBARBITAL AND 5,6-BENZOFLAVONE, Method: SUSPENSION/PLATE) | mutagenic call (Strain/Indicator: TA98, Metabolic Activation: NONE, Method: STANDARD PLATE) | mutagenic call (Strain/Indicator: TA98, Metabolic Activation: RAT, LIVER, S-9, AROCLOR 1254, Method: STANDARD PLATE) | mutagenic call (Strain/Indicator: TA100, Metabolic Activation: NONE, Method: STANDARD PLATE) | mutagenic call (Strain/Indicator: TA100, Metabolic Activation: RAT, LIVER, S-9, AROCLOR 1254, Method: STANDARD PLATE)
1 | Cc1ccc(NO)cc1[N+](=O)[O-] | inactive; negative | inactive; negative | inactive; negative | inactive; negative | – | – | – | –
2 | O=CN(O)c1ccc(Cl)cc1 | – | – | – | – | inactive; negative | active; positive | inactive; negative | active; positive

Source: PubChem BioAssay AID1259407 (Chemical Carcinogenesis Research Information System (CCRIS), 2018)
